Measurements published in paper PMC8097418, “In Vitro and In Vivo Antibacterial Activities of a Novel Quinolone Compound, OPS-2071, against Clostridioides difficile” (Antimicrobial Agents and Chemotherapy, 2021).
Values after ≈ are worked out from the molar mass of the structure shown. Like-named read-outs stand apart in the source and are kept apart here.

What was measured:
[1] = system: 54 clinically isolated C. difficile strains; experiment: MIC by agar dilution against 54 clinically isolated strains; type: cell-based, Clostridioides difficile; conditions: for MIC90 / MIC50: Clostridioides difficile, 54 clinically isolated C. difficile strains; for MIC50: read-out: MIC50
Procedure: (§1) MICs obtained using the agar dilution method were determined visually as described for the CLSI method ([41], [42]). MICs obtained using the broth dilution method were determined visually based on the CLSI method except for using Gifu anaerobic medium (GAM) broth instead of supplemented Brucella broth ([41], [42]).

[2] = system: hypervirulent and nonhypervirulent strains of C. difficile (62 strains); experiment: MIC distribution against 20 hypervirulent and 42 nonhypervirulent strains; type: cell-based, Clostridioides difficile; conditions: for MIC90 / MIC50: Clostridioides difficile
[3] = system: 10 clinical isolates of C. difficile; experiment: MIC (broth dilution) and MBC testing, 10 clinical isolates; type: cell-based, Clostridioides difficile; conditions: 10 clinical isolates
Procedure: In this test, MIC testing was performed using the broth dilution method as recommended in the CLSI ([41]). After the MICs were determined, 10 μl of the bacterial suspension from the MIC test tube was inoculated onto agar plates and incubated at 37°C. The bacterial colonies were then counted and bacterial numbers were calculated. The MBC was considered to be the lowest concentration of the antibiotics that prevented growth and reduced the inoculum by >99.9% within 48 h, irrespective of counts of survivors at higher antibiotic concentrations.

C. difficile ATCC 700057 [4] = experiment: MIC by agar dilution (CLSI) against quality control strain; type: cell-based, Clostridioides difficile; conditions: Clostridioides difficile, read-out: MIC
Procedure: as §1

C. difficile ATCC 700057 [5] = experiment: MIC by broth dilution (GAM broth); type: cell-based, Clostridioides difficile; conditions: Clostridioides difficile, read-out: MIC
Procedure: as §1

C. difficile ATCC 700057 [6] = type: cell-based, Clostridioides difficile
C. difficile ATCC 700057 [7] = experiment: Mutant prevention concentration; type: cell-based, Clostridioides difficile; conditions: approximately 10^10 CFU, 3 days
Procedure: The mutant prevention concentration was measured by plating approximately 10^10 CFU of C. difficile ATCC 700057 onto a GAM agar plate containing the test agent. Inoculated plates were incubated for 3 days, and the MIC for each antibiotic that prevented the growth of colonies was determined using the agar dilution method as described by the CLSI ([41]). The MIC values of grown colonies were compared to determine which bacteria were resistant. The MPC was defined as the lowest concentration that prevented the growth of resistant bacteria.

C. difficile ATCC 700057 [8] = experiment: Postantibiotic effect (PAE); type: cell-based, Clostridioides difficile; conditions: for Postantibiotic effect: 1 h exposure
Procedure: C. difficile ATCC 700057 was cultured in GAM agar and adjusted in GAM broth to approximately 10^6 CFU/ml. The bacterial suspensions were preincubated at 37°C for 1 h. […] After preincubation, test and reference solutions were added to each bacterial suspension in a test tube, and the suspensions were cultured for 1 h. After exposure to the test compounds, bacterial suspensions were washed with GAM broth and cultured for 6 h. […] The PAE was defined according to Craig and Gudmundsson as PAE = T − C, where T is the time required for the viable counts of the exposed bacteria to increase by 1 log10 above the counts observed immediately after washing, and C is the corresponding time for the antibiotic unexposed controls ([44]).

C. difficile ATCC 43255 [9] = experiment: In vivo hamster model of C. difficile infection; set-up: species or system golden Syrian hamsters
Procedure: C. difficile ATCC 43255 was cultured on GAM agar, and a bacterial suspension was prepared in saline ([26]). […] Hamsters were infected using oral gavage with 0.5 ml of suspension containing approximately 10^6 CFU of C. difficile (day −1). The next day, the animals were administered clindamycin phosphate (0.2 mg/ml in water) by oral gavage at a dose of 5 ml/kg of body weight, for a final dose of 1 mg/kg (day 0). The animals were allocated to the test groups using a stratified randomization method based on the body weight of each infected animal. The test compounds were administered by oral gavage once daily for 5 days (OPS-2071, 0.008 to 1 mg/kg; fidaxomicin, 0.04 mg/kg to 5 mg/kg; vancomycin, 0.04 to 5 mg/kg [5-fold dilution]). Infected control animals were administered 5% (wt/vol) gum arabic solution by oral gavage. […] The cecal contents of dead animals were tested for toxin A and toxin B using C.Diff Quik Chek Complete (Abbott Diagnostics Medical Co., Ltd., Tokyo, Japan) to confirm that the death of the animal was due to CDI.
The statistical significance of OPS-2071, fidaxomicin, and vancomycin treatment was analyzed at all doses against vehicle. Survival curves were estimated for each group using the Kaplan-Meier method. Differences in survival homogeneity in each group were evaluated with a log-rank test with Dunnett-type (two-sided) comparison.

C. difficile ATCC 43255 [10] = experiment: MIC against the infection strain; type: cell-based, Clostridioides difficile
C. difficile ATCC 700057 [11] = experiment: Effect of pH on MIC (agar dilution); type: cell-based, Clostridioides difficile; conditions: Clostridioides difficile
[12] = plasma concentrations in the low nanogram per milliliter range or lower; cited from earlier work
[13] = molecular target: DNA gyrase of C. difficile (Clostridioides difficile, UniProt Q18C89+Q18C90); experiment: biochemical
Chain of DNA gyrase of C. difficile (Q18C90 entry or part of it): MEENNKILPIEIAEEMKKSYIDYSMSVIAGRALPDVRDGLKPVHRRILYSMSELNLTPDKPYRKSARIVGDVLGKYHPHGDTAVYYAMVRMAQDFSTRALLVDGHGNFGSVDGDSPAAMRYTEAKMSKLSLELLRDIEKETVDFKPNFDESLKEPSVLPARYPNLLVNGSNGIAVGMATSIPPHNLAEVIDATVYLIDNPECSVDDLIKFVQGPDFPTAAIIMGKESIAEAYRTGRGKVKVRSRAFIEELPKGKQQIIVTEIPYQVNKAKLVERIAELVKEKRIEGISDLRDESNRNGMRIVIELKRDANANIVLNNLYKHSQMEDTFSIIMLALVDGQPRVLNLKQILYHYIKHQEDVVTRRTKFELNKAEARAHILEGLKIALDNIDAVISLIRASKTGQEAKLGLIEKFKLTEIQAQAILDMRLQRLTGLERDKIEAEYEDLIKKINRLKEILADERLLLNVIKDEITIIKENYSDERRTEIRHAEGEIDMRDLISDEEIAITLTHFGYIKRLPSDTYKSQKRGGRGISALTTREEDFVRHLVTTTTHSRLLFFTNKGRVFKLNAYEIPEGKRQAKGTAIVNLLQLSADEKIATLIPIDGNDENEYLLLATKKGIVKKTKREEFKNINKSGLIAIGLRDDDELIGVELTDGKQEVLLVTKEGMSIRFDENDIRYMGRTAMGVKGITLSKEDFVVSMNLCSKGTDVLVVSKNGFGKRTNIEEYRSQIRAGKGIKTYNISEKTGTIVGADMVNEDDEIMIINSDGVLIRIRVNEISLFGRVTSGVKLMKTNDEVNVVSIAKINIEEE
Chain of DNA gyrase of C. difficile (Q18C89 entry or part of it): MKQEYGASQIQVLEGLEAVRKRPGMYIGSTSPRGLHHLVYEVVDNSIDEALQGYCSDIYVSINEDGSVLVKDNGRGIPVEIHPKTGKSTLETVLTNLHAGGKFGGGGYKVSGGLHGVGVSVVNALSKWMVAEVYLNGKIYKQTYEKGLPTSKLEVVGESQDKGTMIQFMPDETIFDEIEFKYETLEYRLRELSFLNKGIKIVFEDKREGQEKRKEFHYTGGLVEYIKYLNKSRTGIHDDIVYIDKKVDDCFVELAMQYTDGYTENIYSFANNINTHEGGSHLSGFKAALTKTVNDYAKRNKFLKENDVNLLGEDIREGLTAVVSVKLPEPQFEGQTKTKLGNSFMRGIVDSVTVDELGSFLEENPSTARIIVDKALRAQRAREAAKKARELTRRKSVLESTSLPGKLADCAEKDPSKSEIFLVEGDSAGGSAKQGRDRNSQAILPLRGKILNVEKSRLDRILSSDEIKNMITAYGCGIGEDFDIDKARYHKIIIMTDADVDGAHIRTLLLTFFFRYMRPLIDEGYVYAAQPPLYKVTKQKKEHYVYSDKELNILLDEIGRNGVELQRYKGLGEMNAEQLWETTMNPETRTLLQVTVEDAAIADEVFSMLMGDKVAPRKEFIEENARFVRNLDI

[14] = nonhypervirulent strains (n = 42)

CCc1c(Cl)c(O)c(Cl)c(O)c1C(=O)O[C@H]1[C@H](O)[C@H](OC)[C@H](OC/C2=C\C=C\C[C@H](O)/C(C)=C/[C@H](CC)[C@@H](O[C@@H]3OC(C)(C)[C@@H](OC(=O)C(C)C)[C@H](O)[C@@H]3O)/C(C)=C/C(C)=C/C[C@@H]([C@@H](C)O)OC2=O)O[C@@H]1C [Fidaxomicin]
MIC90 [1]: 8 µg/mL (≈ 7.56 µM) | MIC50 [1]: 0.063 µg/mL (≈ 0.0595 µM) | MIC90 ([2]; all 62 strains): 0.25 µg/mL (≈ 0.236 µM) | MIC50 ([2]; hypervirulent strains (n = 20)): 0.25 µg/mL (≈ 0.236 µM) | MIC90 ([2]; hypervirulent strains (n = 20)): 0.25 µg/mL (≈ 0.236 µM) | MIC50 [2, 14]: 0.06 µg/mL (≈ 0.0567 µM) | MIC90 [2, 14]: 0.25 µg/mL (≈ 0.236 µM) | Cumulative percentage of strains ([2]; Hyp (n = 20), MIC 0.063 μg/ml): 0% | Cumulative percentage of strains ([2]; Non-hyp (n = 42), MIC 0.008 μg/ml): 5% | Cumulative percentage of strains ([2]; Non-hyp (n = 42), MIC 0.063 μg/ml): 52% | Cumulative percentage of strains ([2]; Non-hyp (n = 42), MIC <0.004 μg/ml): 0% | MIC range ([2]; hypervirulent strains (n = 20)): 0.125 to 0.5 µg/mL | MIC range [2, 14]: 0.008 to 0.5 µg/mL | MBC Range ([3]; >99.9% reduction within 48 h): 0.06 to 0.25 µg/mL | MIC range ([3]; broth dilution): 0.06 to 0.25 µg/mL | MIC90 ([3]; Clostridioides difficile, broth dilution, read-out: MIC90): 0.125 µg/mL (≈ 0.118 µM) | MBC ([3]; Clostridioides difficile, read-out: MBC90): 0.25 µg/mL (≈ 0.236 µM) | MIC (C. difficile ATCC 700057 [4]; ATCC700057, agar dilution, determined for the spontaneous resistance assay): 0.06 µg/mL (≈ 0.0567 µM) | MIC (C. difficile ATCC 700057 [4]; ATCC700057, quality control strain ATCC 700057, CLSI method): 0.063 µg/mL (≈ 0.0595 µM) | MIC (C. difficile ATCC 700057 [5]; ATCC700057, broth dilution, retested for the time-kill assay): 0.03 µg/mL (≈ 0.0284 µM) | MIC (C. difficile ATCC 700057 [5]; ATCC700057, broth method, determined for the PAE assay): 0.06 µg/mL (≈ 0.0567 µM) | Frequency of spontaneous resistance (C. difficile ATCC 700057 [6]; 4× MIC): 1.47 × 10^–7 | Frequency of spontaneous resistance (C. difficile ATCC 700057 [6]; 16× MIC): <9.17 × 10^–9 | Frequency of spontaneous resistance (C. difficile ATCC 700057 [6]; 64× MIC): <9.17 × 10^–9 | mutant prevention concentration (MPC) (C. difficile ATCC 700057 [7]): 8 µg/mL | PAEs at 4- and 8-fold the MIC (C. difficile ATCC 700057 [8]; 4- and 8-fold the MIC): 2.86 to 2.77 h | Postantibiotic effect (C. difficile ATCC 700057 [8]; 4× MIC): 2.86 h | Postantibiotic effect (C. difficile ATCC 700057 [8]; 8× MIC): 2.77 h | 50% effective dose (ED50) (C. difficile ATCC 43255 [9]; survival on day 20, oral once daily for 5 days, probit method): 1.63 mg/kg/day | dosages with significant efficacy compared with vehicle control (C. difficile ATCC 43255 [9]; survival, log-rank test): ≥ 1 mg/kg | MIC (C. difficile ATCC 43255 [10]): 0.06 µg/mL (≈ 0.0567 µM) | MIC (C. difficile ATCC 700057 [11]; ATCC700057, pH 6): 0.03 µg/mL (≈ 0.0284 µM) | MIC (C. difficile ATCC 700057 [11]; ATCC700057, pH 7): 0.06 µg/mL (≈ 0.0567 µM) | MIC (C. difficile ATCC 700057 [11]; ATCC700057, pH 8): 0.06 µg/mL (≈ 0.0567 µM) | oral absorption [12]: minimally absorbed

C[C@H]1COc2c(N3CCN(C)CC3)c(F)cc3c(=O)c(C(=O)O)cn1c23 [Levofloxacin]
activity against C. difficile isolates ([1]; 54 clinical isolates): inactive | MIC90 [1]: > 128 µg/mL | MIC50 [1]: 128 µg/mL (≈ 354 µM) | IC50 [13]: 31.8 µM
